Reference: the supplement of paper PMC10011410
± gives the standard deviation of the averaged measurements.

Columns and labels:
U-2 OS [1] = experiment: AUC of culture confluence over time (live-cell imaging) (AUC (confluence % x time)); higher = more confluent culture (less growth inhibition)
Description: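 Live-cell Incucyte imaging of U-2 OS cells in F-12K medium. Compounds were tested mostly at 5, 10 and 20 uM, and cells were imaged every 4 h for up to 60 h. Value is the area under the curve of phase-contrast confluence over time.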

U-2 OS [2] = experiment: cell painting activity score (Mahalanobis distance from DMSO wells); higher = stronger morphological phenotype; settings: 24 h
Description: (§1)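 Cell painting in U-2 OS cells (384-well, about 1,500 cells per well), compound exposure 24 h, usually six 2-fold concentrations from 20 to 0.625 uM (some compounds higher or lower). Relative cell count is the cell number per well relative to DMSO wells. Activity score is the Mahalanobis distance of the morphological profile from DMSO control wells. Mean of four technical replicate plates.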

U-2 OS [3] = experiment: relative cell count vs DMSO (cell painting) (fraction of DMSO control); higher = more cells remaining (less cytotoxic); settings: 24 h
Description: as §1

SMILES	AUC of culture confluence over time (U-2 OS [1]; 5 µM)	AUC of culture confluence over time (U-2 OS [1]; 10 µM)	AUC of culture confluence over time (U-2 OS [1]; 20 µM)	cell painting activity score (U-2 OS [2]; 0.625 µM)	cell painting activity score (U-2 OS [2]; 1.25 µM)	cell painting activity score (U-2 OS [2]; 2.5 µM)	cell painting activity score (U-2 OS [2]; 5 µM)	cell painting activity score (U-2 OS [2]; 10 µM)	cell painting activity score (U-2 OS [2]; 20 µM)	relative cell count (U-2 OS [3]; 0.625 µM)	relative cell count (U-2 OS [3]; 1.25 µM)	relative cell count (U-2 OS [3]; 2.5 µM)	relative cell count (U-2 OS [3]; 5 µM)	relative cell count (U-2 OS [3]; 10 µM)	relative cell count (U-2 OS [3]; 20 µM)	AUC of culture confluence over time (U-2 OS [1]; 1.25 µM)	cell painting activity score (U-2 OS [2]; 0.019532 µM)	cell painting activity score (U-2 OS [2]; 0.07812 µM)	cell painting activity score (U-2 OS [2]; 0.3124 µM)	relative cell count (U-2 OS [3]; 0.019532 µM)	relative cell count (U-2 OS [3]; 0.07812 µM)	relative cell count (U-2 OS [3]; 0.3124 µM)
CC[C@H]1CN2CCc3cc(OC)c(OC)cc3[C@@H]2C[C@@H]1C[C@H]1NCCc2cc(OC)c(OC)cc21.Cl.Cl.O	15.2	16	16.6	18.4	18.9	19.4	20.8	20.8	20.6	0.51	0.489	0.482	0.462	0.462	0.433	–	–	–	–	–	–	–
CC1OC2=C(C(=O)C(=O)c3ccccc32)C1(C)C (stereo not given)	19.5	18.5	16	15	17.1	20.7	25.1	33.8	34.2	0.845	0.561	0.299	0.207	0.14	0.134	–	–	–	–	–	–	–
O=c1c(O)c(-c2ccc(O)c(O)c2)oc2cc(O)cc(O)c12	46.5	53.6	50.6	4.42	3.56	5.15	6.18	8.67	12.4	0.954	0.982	0.939	0.962	0.892	0.814	–	–	–	–	–	–	–
O=c1cc(N2CCOCC2)oc2c(-c3ccccc3)cccc12	42.2	40.7	31.5	3.52	4.47	4.5	5.36	6.81	9.26	1.02	0.978	0.971	0.962	1	0.948	–	–	–	–	–	–	–
O=C1O[C@H]2[C@@H]3OC(=O)c4cc(O)c(O)c(O)c4-c4c(O)c(O)c5oc(=O)c6c(c(O)c(O)c7oc(=O)c4c5c76)-c4c(cc(O)c(O)c4O)C(=O)OC[C@H]3OC(O)[C@@H]2OC(=O)c2cc(O)c(O)c(O)c2-c2c1cc(O)c(O)c2O (stereo not given in full)	47.1	42.3	38.4	5.43	7.35	6.54	7.71	7.7	12.5	1.01	1	1.04	1.02	0.968	0.808	–	–	–	–	–	–	–
O=C(O)C[C@@H]1C(=O)O[C@H]2[C@@H]3OC(=O)c4cc(O)c(O)c(O)c4-c4c(cc(O)c(O)c4O)C(=O)OC[C@H]2O[C@@H](OC(=O)c2cc(O)c(O)c(O)c2)[C@@H]3OC(=O)c2cc(O)c(O)c3c2[C@H]1[C@H](O)C(=O)O3	45.6	45.4	41.8	3.42	3.94	4.16	5.6	5.3	8.86	1.01	1	1.06	1.04	1.05	1.05	–	–	–	–	–	–	–
Oc1ccc2ccccc2c1SSc1c(O)ccc2ccccc12	44.4	37.5	18	5.34	4.94	7.79	8.22	9.14	14	0.996	0.924	0.926	0.901	0.812	0.245	–	–	–	–	–	–	–
CC(C)C[C@H](NC(=O)[C@H](CCc1ccccc1)NC(=O)CN1CCOCC1)C(=O)N[C@@H](Cc1ccccc1)C(=O)N[C@@H](CC(C)C)C(=O)[C@@]1(C)CO1	18.4	17.5	16.1	30.8	31.9	32.5	31.5	28.8	29.7	0.149	0.136	0.125	0.141	0.143	0.149	–	–	–	–	–	–	–
Nc1ccn([C@@H]2O[C@H](CO)[C@@H](O)C2(F)F)c(=O)n1	29.2	31.9	28.7	13.7	14	14.9	15.2	15.4	14.3	0.601	0.571	0.574	0.581	0.624	0.589	–	–	–	–	–	–	–
CC(=O)O[C@H]1C(=O)[C@@]2(C)[C@H]([C@H](OC(=O)c3ccccc3)[C@]3(O)C[C@H](OC(=O)[C@H](O)[C@@H](NC(=O)c4ccccc4)c4ccccc4)C(C)=C1C3(C)C)[C@]1(OC(C)=O)CO[C@@H]1C[C@@H]2O	17.4	–	20	–	24.9 ± 1.2	–	23.3 ± 0.75	–	24.1 ± 0.87	–	0.253 ± 0.051	–	0.222 ± 0.03	–	0.351 ± 0.024	17	16.9 ± 1.5	19 ± 0.57	22.1 ± 1.1	0.939 ± 0.12	0.744 ± 0.19	0.413 ± 0.16
C/C1=C/C(=O)O[C@@H]2C[C@@H](CC[C@H](C)/C=C\CC1)O[C@@](O)([C@@H]1CSC(=O)N1)C2	27.1	20.9	20.7	8.28	14.2	15.4	14.9	17.7	20	0.941	0.878	0.759	0.691	0.664	0.53	–	–	–	–	–	–	–
CC[C@H](C)[C@@H]1NC(=O)CNC(=O)[C@@H]2Cc3c([nH]c4cc(O)ccc34)S(=O)C[C@H](NC(=O)CNC1=O)C(=O)N[C@@H](CC(=O)O)C(=O)N1C[C@H](O)C[C@H]1C(=O)N[C@@H]([C@@H](C)[C@@H](O)CO)C(=O)N2 (stereo not given in full)	26.4	24.6	16.3	5.47	4.77	6.25	4.42	11.2	29.1	0.979	0.941	0.975	0.992	0.958	0.862	–	–	–	–	–	–	–
CCCCc1c(-c2ccc(OC)cc2)[nH]c2nccnc12	53.2	47.6	52.7	4.99	3.58	6.25	6.12	8.25	8.09	1.01	0.952	0.968	0.949	0.927	0.624	–	–	–	–	–	–	–
CC1(C)CC[C@]2(C(=O)O[C@@H]3O[C@H](CO)[C@@H](O)[C@H](O)[C@H]3O)CC[C@]3(C)C(=CC[C@@H]4[C@@]5(C)CC[C@H](O[C@@H]6O[C@H](C(=O)O)[C@@H](O)[C@H](O)[C@H]6O[C@@H]6O[C@H](CO)[C@@H](O)[C@H](O)[C@H]6O)C(C)(C)[C@@H]5CC[C@]43C)[C@@H]2C1	54.4	51.1	57.6	4.68	4.76	5.42	5.24	6.27	9.37	0.971	0.973	0.949	0.938	0.915	0.964	–	–	–	–	–	–	–
C[C@@H]1O[C@@H](O[C@H]2[C@H](O[C@H]3CC[C@@]4(C)[C@@H](CC[C@]5(C)[C@@H]4CC=C4[C@@H]6CC(C)(C)CC[C@]6(C(=O)O)CC[C@]45C)[C@]3(C)CO)OC[C@H](O[C@@H]3O[C@H](CO)[C@@H](O)[C@H](O)[C@H]3O)[C@@H]2O)[C@H](O)[C@H](O)[C@H]1O	14.5	16.5	13	4.55	9.15	31.1	31.3	33.6	35.9	0.916	0.143	0.0325	0.0427	0.0257	0.015	–	–	–	–	–	–	–
O.O=P1(N(CCCl)CCCl)NCCCO1 (stereo not given)	43.1	41.1	44.2	3.69	3.83	3.34	3.43	4.46	9.23	0.967	0.999	0.965	0.985	0.993	0.941	–	–	–	–	–	–	–
CN1C(=O)[C@@]23C[C@]4([C@]56C[C@@]78SS[C@@](CO)(C(=O)N7[C@H]5Nc5ccccc56)N(C)C8=O)c5ccccc5N[C@@H]4N2C(=O)[C@]1(CO)SS3	9.52	13.4	13.8	16.3	21.7	17.3	16.4	7.82	14	0.176	0.0258	0.0235	0.0282	0.0283	0.0118	–	–	–	–	–	–	–
O=C(O[C@@H]1O[C@@H]2COC(=O)c3cc(O)c(O)c(O)c3-c3c(cc(O)c(O)c3O)C(=O)O[C@H]([C@H]1O)[C@@H]2O)c1cc(O)c(O)c(O)c1	48.7	46.2	43.4	4.19	3.86	4.06	3.55	4.28	4.5	1.02	1.04	1.01	1	0.979	0.978	–	–	–	–	–	–	–
